≈ marks a conversion by molar mass, not a printed value.
What was measured:
[1] = target: Voltage-gated inwardly rectifying potassium channel KCNH2 (Homo sapiens, UniProt Q12809)
Description: Inhibition of hERG expressed in CHO cells at -80 mV holding potential by QPatch automated electrophysiology assay

[2] = Plasma protein binding in dog at 5 uM incubated for 5 hrs by rapid equilibrium dialysis method; format: ADME, cell-free, Canis lupus familiaris; conditions: read-out: PPB (converted)
[3] = Cmax in Beagle dog at 1 mg/kg, po or 0.3 mg/kg, iv measured for 24 hrs by LC-MS/MS analysis; format: ADME, organism-based, Canis lupus familiaris; design: time 24 hrs, dose 1 mg/kg, route po; conditions: in vivo
[4] = Plasma protein binding in rat at 5 uM incubated for 5 hrs by rapid equilibrium dialysis method; format: ADME, cell-free; conditions: read-out: PPB (converted)
[5] = Metabolic stability in rat liver microsomes assessed as intrinsic clearance at 1 uM in presence of NADPH regenerating system measured for 45 mins by LC-MS/MS analysis; format: ADME, Microsome; conditions: read-out: CLH
[6] = tested on: Mus musculus; assay: Antiallodynic activity in po dosed C57BL/6 mouse model of cisplatin-induced mechanical allodynia assessed as increase in paw withdrawal threshold stimulated with cisplatin on day 1 to 5 and 10 to 15 followed by daily administration of compound starting from day 16 and measured for 43 days by von frey test; format: functional, organism-based; conditions: dose 3-30 mg/kg, time 28.0 day
[7] = Toxicity in monkey assessed as optic nerve swelling measured after 28 days by IND-enabling study; design: species or system Macaca mulatta; conditions: rhesus monkey, in vivo, 672 h; time 28 day
[8] = Toxicity in rat measured after 14 days by IND-enabling study; conditions: in vivo, 336 h, time 14 day
[9] = Binding affinity to full length human DLK (1 to 859 residues)/NFkappaB DNA binding domain (unknown origin) fusion protein transfected in HEK293 cells assessed as dissociation constant incubated for 1 hr by Kinomescan assay; format: cell-based
[10] = Plasma clearance in C57BL/6 mouse at 0.3 mg/kg, iv administered via tail vein and measured for 24 hrs by LC-MS/MS analysis; format: ADME, organism-based
[11] = Permeability in wild type MDCK cells across apical to basolateral side at 5 uM incubated for 90 mins by LC-MS/MS analysis; format: ADME, cell-based, Canis lupus familiaris; conditions: dog, read-out: permeability
[12] = Toxicity in monkey measured after 7 days by IND-enabling study; design: species or system Macaca mulatta; conditions: rhesus monkey, in vivo, 168 h; time 7 day
[13] = Volume of distribution at steady state in Beagle dog at 1 mg/kg, po or 0.3 mg/kg, iv measured for 24 hrs by LC-MS/MS analysis; format: ADME, organism-based, Canis lupus familiaris; conditions: in vivo
[14] = Bioavailability in cynomolgus monkey at 1 mg/kg, po or 0.3 mg/kg, iv measured for 24 hrs by LC-MS/MS analysis; format: ADME, organism-based, Macaca fascicularis; conditions: in vivo
[15] = Volume of distribution at steady state in cynomolgus monkey at 1 mg/kg, po or 0.3 mg/kg, iv measured for 24 hrs by LC-MS/MS analysis; format: ADME, organism-based, Macaca fascicularis; conditions: in vivo
[16] = Cmax in Sprague-Dawley rat at 3 mg/kg, po or 1 mg/kg, iv measured for 24 hrs by LC-MS/MS analysis; format: ADME, organism-based; design: time 24 hrs, dose 3 mg/kg, route po; conditions: in vivo
[17] = Thermodynamic aqueous solubility of compound in FaSSIF at pH 6.5 incubated for 1 hr under shaking condition by LC-MS/MS analysis; format: physicochemical; conditions: read-out: Therm_solubility
[18] = Volume of distribution at steady state in Sprague-Dawley rat at 3 mg/kg, po or 1 mg/kg, iv measured for 24 hrs by LC-MS/MS analysis; format: ADME, organism-based; conditions: in vivo
[19] = Half life in Beagle dog at 1 mg/kg, po or 0.3 mg/kg, iv measured for 24 hrs by LC-MS/MS analysis; format: ADME, organism-based, Canis lupus familiaris; conditions: in vivo
[20] = Metabolic stability in mouse hepatocytes assessed as intrinsic clearance at 2 uM measured for 120 mins by LC-MS analysis; format: ADME, cell-based, Hepatocyte; conditions: read-out: CLH
[21] = AUClast in cynomolgus monkey at 1 mg/kg, po or 0.3 mg/kg, iv measured for 24 hrs by LC-MS/MS analysis; format: ADME, organism-based, Macaca fascicularis; design: dose 1 mg/kg, time 24 hrs, route po; conditions: in vivo
[22] = Metabolic stability in mouse liver microsomes assessed as intrinsic clearance at 1 uM in presence of NADPH regenerating system measured for 45 mins by LC-MS/MS analysis; format: ADME, Microsome; conditions: read-out: CLH
[23] = target: Cytochrome P450 2C9 (Homo sapiens, UniProt P11712); assay: Inhibition of CYP2C9 in human liver microsomes using diclofenac as substrate incubated for 10 mins in presence of NADPH by LC-MS/MS analysis; format: ADME, Microsome
[24] = target: T1, Mitogen-activated protein kinase kinase kinase 12 (Homo sapiens, UniProt Q12852); assay: Inhibition of doxycycline-inducible human DLK transfected in HEK293 cells assessed as reduction in c-Jun phosphorylation at Ser63 residue incubated for 5 hrs; format: cell-based
T1 sequence (Q12852 whole entry): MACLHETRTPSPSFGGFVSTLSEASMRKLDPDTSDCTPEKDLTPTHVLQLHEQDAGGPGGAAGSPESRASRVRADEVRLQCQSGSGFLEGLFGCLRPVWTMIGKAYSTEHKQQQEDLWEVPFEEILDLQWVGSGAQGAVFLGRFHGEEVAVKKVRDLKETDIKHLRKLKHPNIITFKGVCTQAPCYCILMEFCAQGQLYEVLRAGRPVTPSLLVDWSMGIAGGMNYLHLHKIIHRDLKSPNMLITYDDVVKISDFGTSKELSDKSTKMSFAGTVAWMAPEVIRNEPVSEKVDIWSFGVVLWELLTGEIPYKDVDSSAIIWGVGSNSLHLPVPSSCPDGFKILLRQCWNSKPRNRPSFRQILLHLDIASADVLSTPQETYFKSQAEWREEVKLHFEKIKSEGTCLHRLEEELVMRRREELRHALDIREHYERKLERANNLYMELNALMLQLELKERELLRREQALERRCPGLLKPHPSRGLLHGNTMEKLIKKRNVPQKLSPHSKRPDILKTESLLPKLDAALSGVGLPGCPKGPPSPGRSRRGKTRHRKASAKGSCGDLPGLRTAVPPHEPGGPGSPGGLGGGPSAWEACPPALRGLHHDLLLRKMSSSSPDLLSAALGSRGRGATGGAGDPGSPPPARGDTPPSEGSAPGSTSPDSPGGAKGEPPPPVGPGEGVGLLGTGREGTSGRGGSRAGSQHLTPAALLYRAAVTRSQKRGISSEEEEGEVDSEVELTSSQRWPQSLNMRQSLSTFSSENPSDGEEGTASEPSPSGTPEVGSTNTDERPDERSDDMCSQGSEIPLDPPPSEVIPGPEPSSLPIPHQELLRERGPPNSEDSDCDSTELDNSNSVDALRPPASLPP

[25] = Metabolic stability in monkey liver microsomes assessed as intrinsic clearance at 1 uM in presence of NADPH regenerating system measured for 45 mins by LC-MS/MS analysis; format: ADME, Macaca mulatta, Microsome; conditions: rhesus monkey, read-out: CLH
[26] = Metabolic stability in dog liver microsomes assessed as intrinsic clearance at 1 uM in presence of NADPH regenerating system measured for 45 mins by LC-MS/MS analysis; format: ADME, Canis lupus familiaris, Microsome; conditions: read-out: CLH
[27] = Permeability in MDCK-MDR1 cells across basolateral to apical side at 5 uM incubated for 90 mins by LC-MS/MS analysis; format: ADME, cell-based, Canis lupus familiaris; conditions: dog, read-out: permeability
[28] = Permeability in MDCK-MDR1 cells across apical to basolateral side at 5 uM incubated for 90 mins by LC-MS/MS analysis; format: ADME, cell-based, Canis lupus familiaris; conditions: dog, read-out: permeability
[29] = Metabolic stability in human liver microsomes assessed as intrinsic clearance at 1 uM in presence of NADPH regenerating system measured for 45 mins by LC-MS/MS analysis; format: ADME, Microsome; conditions: read-out: CLH

Chain of Cytochrome P450 2C9 (P11712 whole entry): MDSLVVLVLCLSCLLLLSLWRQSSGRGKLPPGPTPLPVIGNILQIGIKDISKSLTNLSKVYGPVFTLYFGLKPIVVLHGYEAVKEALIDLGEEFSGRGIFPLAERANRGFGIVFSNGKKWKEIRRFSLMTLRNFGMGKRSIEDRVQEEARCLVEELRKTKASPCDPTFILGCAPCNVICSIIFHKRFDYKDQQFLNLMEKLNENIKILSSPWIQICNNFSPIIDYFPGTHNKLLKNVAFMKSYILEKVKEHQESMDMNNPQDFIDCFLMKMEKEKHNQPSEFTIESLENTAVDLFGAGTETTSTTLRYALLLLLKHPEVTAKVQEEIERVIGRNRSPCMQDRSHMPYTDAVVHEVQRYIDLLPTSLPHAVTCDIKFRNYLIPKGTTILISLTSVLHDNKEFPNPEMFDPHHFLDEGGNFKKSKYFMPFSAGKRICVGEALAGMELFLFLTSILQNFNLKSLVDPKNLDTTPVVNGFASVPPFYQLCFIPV
Chain of Voltage-gated inwardly rectifying potassium channel KCNH2 (Q12809 whole entry): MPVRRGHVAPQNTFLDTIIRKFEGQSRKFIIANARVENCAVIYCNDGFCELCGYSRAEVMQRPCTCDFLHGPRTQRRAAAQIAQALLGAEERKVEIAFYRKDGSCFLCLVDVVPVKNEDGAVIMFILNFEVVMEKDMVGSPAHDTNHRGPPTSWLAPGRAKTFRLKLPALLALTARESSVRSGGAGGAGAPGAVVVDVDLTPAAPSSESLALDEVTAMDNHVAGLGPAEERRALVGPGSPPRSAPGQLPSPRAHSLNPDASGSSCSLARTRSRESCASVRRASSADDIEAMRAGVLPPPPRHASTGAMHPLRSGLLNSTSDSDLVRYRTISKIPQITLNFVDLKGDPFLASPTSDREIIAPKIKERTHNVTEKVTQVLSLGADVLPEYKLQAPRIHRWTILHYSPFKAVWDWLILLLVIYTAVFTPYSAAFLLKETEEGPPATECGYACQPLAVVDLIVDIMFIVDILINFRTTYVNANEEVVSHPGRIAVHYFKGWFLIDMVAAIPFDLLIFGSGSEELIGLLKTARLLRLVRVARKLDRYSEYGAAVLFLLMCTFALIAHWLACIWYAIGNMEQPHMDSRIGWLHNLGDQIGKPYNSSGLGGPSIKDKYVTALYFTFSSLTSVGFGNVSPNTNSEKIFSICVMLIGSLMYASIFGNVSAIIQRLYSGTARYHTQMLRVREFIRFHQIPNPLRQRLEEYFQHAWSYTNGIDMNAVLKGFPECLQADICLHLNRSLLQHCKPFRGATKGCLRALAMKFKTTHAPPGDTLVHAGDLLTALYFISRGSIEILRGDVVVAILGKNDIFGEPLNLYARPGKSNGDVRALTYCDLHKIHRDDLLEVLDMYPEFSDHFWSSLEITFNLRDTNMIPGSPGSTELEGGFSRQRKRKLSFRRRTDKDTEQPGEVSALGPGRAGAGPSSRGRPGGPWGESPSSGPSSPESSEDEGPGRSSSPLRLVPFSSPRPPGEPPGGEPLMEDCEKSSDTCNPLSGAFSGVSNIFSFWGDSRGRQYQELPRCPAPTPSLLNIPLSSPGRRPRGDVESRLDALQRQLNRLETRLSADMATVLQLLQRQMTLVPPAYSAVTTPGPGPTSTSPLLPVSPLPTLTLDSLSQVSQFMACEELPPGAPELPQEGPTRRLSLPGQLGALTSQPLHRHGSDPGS

## Nc1ncc(-c2cn(C34CC(F)(C3)C4)c([C@@H](O)C(F)(F)F)n2)cc1OC(F)(F)F
[1]
  IC50: > 30000 nM
[2]
  fraction unbound at 5 h, 5 µM: 0.053
[3]
  Cmax: 1200 nM
[4]
  fraction unbound at 5 h, 5 µM: 0.118
[5]
  CLint scaled at 1 µM: 16 mL/min/kg
[6]
  Activity: Dose-Dependent Effect
[7]
  Activity: Toxic
[8]
  Activity: Non-Toxic
[9]
  Kd: 1.3 nM
[10]
  clearance: 4.3 mL/min/kg
[11]
  Papp A→B at 1.5 h, 5 µM: 38 ×10⁻⁶ cm/s
[12]
  Activity: Non-Toxic
[13]
  Vdss: 3.5 L/kg
[14]
  bioavailability: > 100%
[15]
  Vdss: 5.3 L/kg
[16]
  Cmax: 1300 nM
[17]
  solubility thermodynamic at 1 h: 38 µM (≈ 16.2 µg/mL)
[18]
  Vdss: 5.6 L/kg
[19]
  half-life: 8.5 h
[20]
  CLint scaled at 2 µM: 2.5 mL/min/kg
[21]
  AUC(0-t) at 24 h: 4.7 µM·h
[22]
  CLint scaled at 1 µM: 14 mL/min/kg
[23]
  IC50: > 10000 nM
[24]
  IC50: 107 nM
[25]
  CLint scaled at 1 µM: 11 mL/min/kg
[26]
  CLint scaled at 1 µM: 12 mL/min/kg
[27]
  Papp B→A at 1.5 h, 5 µM: 43 ×10⁻⁶ cm/s
[28]
  Papp A→B at 1.5 h, 5 µM: 43 ×10⁻⁶ cm/s
[29]
  CLint scaled at 1 µM: 3 mL/min/kg
